# Results: patent publication EP4741380A1, “ISOXAZOLINE COMPOUND AND USE” (priority 2024, dated 2025)
# Like-named read-outs stand apart in the source and are kept apart here.
# Tested on: mites
# Test: Mite killing efficacy test with an in vitro model
# Conditions: 30 µM drug solution
# Description: Mite collection: Live mites were gently picked up from a cage box with cotton swabs or small tweezers, 17-26 live mites per group.
# Drug treatment and detection method: 100 µL of a drug solution with a different concentration (drug solution prepared by 3% DMSO solution + 97% water and having a target final concentration of 30 µM) was aspirated with a pipette and added to a 24-well plate for each group, ensuring full contact between the drug and the mites. The mites were separately incubated at normal temperature for 5 min, transferred from each plate to another dry 24-well plate with the top sealed, and air-dried for about 1 h. Mite actions were observed, and the number of dead mites/the total number of mites was recorded. Then, the 24-well plate containing the mites was cultured at room temperature and relatively high humidity. The number of dead mites/the total number of mites was counted separately after 1 h, 2 h, 4 h, 6 h, 8 h, 22 h, and 24 h (time points after drug addition), and mite mortality rates were calculated. The project ended 24 h after drug addition.
# At a corresponding time point, a mite mortality rate greater than or equal to 90% is denoted as "+++", a mite mortality rate less than 90% and greater than or equal to 50% is denoted as "++", and a mite mortality rate less than 50% is denoted as "+".
# [1] = 4 h after drug addition, read-out: Mite Mortality Rate 4 h
# [2] = 24 h after drug addition, read-out: Mite Mortality Rate 24 h
Structure (SMILES),mortality at 30 µM [1] [%],mortality at 30 µM [2] [%],Mite Mortality Rate 4 h (4 h after drug addition),Mite Mortality Rate 24 h (24 h after drug addition)
"Cc1cc(C2=NOC(c3cc(Cl)cc(Cl)c3F)(C(F)(F)F)C2)ccc1C(=O)NCC(=O)NC1(C(F)(F)F)CC1 (centres unmarked) [Example 019, 4-(5-(3,5-dichloro-2-fluorophenyl)-5-(trifluoromethyl)-4,5-dihydroisoxazol-3-yl)-2-methyl-N-(2-oxo-2-((1-(trifluoromethyl)cyclopropyl)amino)ethyl)benzamide]",50 to 90,> 90,–,–
"Cc1cc(C2=NOC(c3cc(Cl)cc(Cl)c3Cl)(C(F)(F)F)C2)ccc1C(=O)NCC(=O)NC1(C(F)(F)F)CC1 (centres unmarked) [Example 020, 2-methyl-N-(2-oxo-2-((1-(trifluoromethyl)cyclopropyl)amino)ethyl)-4-(5-(2,3,5-trichlorophenyl) -5-(trifluoromethyl)-4,5-dihydroisoxazol-3-yl)benzamide]",< 50,50 to 90,–,–
"Cc1cc(Cl)cc(C2(C(F)(F)F)CC(c3ccc(C(=O)NCC(=O)NC4(C(F)(F)F)CC4)c(C)c3)=NO2)c1 (centres unmarked) [Example 032, 4-(5-(3-chloro-5-methylphenyl)-5-(trifluoromethyl)-4,5-dihydroisoxazol-3-yl)-2-methyl-N-(2-oxo-2-((1-(trifluoromethyl)cyclopropyl)amino)ethyl)benzamide]",< 50,> 90,–,–
"Cc1cc(C2=NOC(c3cc(Cl)cc(OC(F)(F)F)c3)(C(F)(F)F)C2)ccc1C(=O)NCC(=O)NC1(C(F)(F)F)CC1 (centres unmarked) [Example 037, 4-(5-(3-chloro-5-(trifluoromethoxy)phenyl)-5-(trifluoromethyl)-4,5-dihydroisoxazol-3-yl)-2-met hyl-N-(2-oxo-2-((1-(trifluoromethyl)cyclopropyl)amino)ethyl)benzamide]",50 to 90,> 90,–,–
"O=C(CNC(=O)c1ccc(C2=NOC(c3cc(Cl)cc(Cl)c3)(C(F)(F)F)C2)cc1)NC1(C(F)(F)F)CC1 (centres unmarked) [Example 038, 4-(5-(3,5-dichlorophenyl)-5-(trifluoromethyl)-4,5-dihydroisoxazol-3-yl)-N-(2-oxo-2-((1-(trifluor omethyl)cyclopropyl)amino)ethyl)benzamide]",< 50,> 90,–,–
Cc1cc(C2=NOC(c3cc(Cl)cc(Cl)c3)(C(F)(F)F)C2)ccc1C(=O)NCC(=O)NCC1(C(F)(F)F)CC1 (centres unmarked) [Example 018],–,–,"+ (a mite mortality rate less than 50% is denoted as ""+"")","++ (a mite mortality rate less than 90% and greater than or equal to 50% is denoted as ""++"")"
"Cc1cc(C2=NOC(c3cc(Cl)c(Cl)c(Cl)c3)(C(F)(F)F)C2)ccc1C(=O)NCC(=O)NC1(C(F)(F)F)CC1 (centres unmarked) [Example 004, 2-methyl-N-(2-oxo-2-((1-(trifluoromethyl)cyclopropyl)amino)ethyl)-4-(5-(3,4,5-trichlorophenyl) -5-(trifluoromethyl)-4,5-dihydroisoxazol-3-yl)benzamide]",< 50,> 90,–,–
"Cc1cc(C2=NOC(c3cc(Cl)cc(Cl)c3)(C(F)(F)F)C2)ccc1C(=O)NCC(=O)NC1(C(F)(F)F)COC1 (centres unmarked) [Example 002, 4-(5-(3,5-dichlorophenyl)-5-(trifluoromethyl)-4,5-dihydroisoxazol-3-yl)-2-methyl-N-(2-oxo-2-((3-(trifluoromethyl)oxetan-3-yl)amino)ethyl)benzamide]",< 50,> 90,–,–
"Cc1cc(C2=NOC(c3cc(F)cc(C(F)(F)F)c3)(C(F)(F)F)C2)ccc1C(=O)NCC(=O)NC1(C(F)(F)F)CC1 (centres unmarked) [Example 031, 4-(5-(3-fluoro-5-(trifluoromethyl)phenyl)-5-(trifluoromethyl)-4,5-dihydroisoxazol-3-yl)-2-methy 1-N-(2-oxo-2-((1-(trifluoromethyl)cyclopropyl)amino)ethyl)benzamide]",–,–,"+++ (a mite mortality rate greater than or equal to 90% is denoted as ""+++"")","+++ (a mite mortality rate greater than or equal to 90% is denoted as ""+++"")"
"Cc1cc(C2=NOC(c3cc(Cl)cc(Cl)c3)(C(F)(F)F)C2)cc(Cl)c1C(=O)NCC(=O)NC1CC1 (centres unmarked) [Example 040, 2-chloro-N-(2-(cyclopropylamino)-2-oxoethyl)-4-(5-(3,5-dichlorophenyl)-5-(trifluoromethyl)-4,5-dihydroisoxazol-3-yl)-6-methylbenzamide]",< 50,< 50,–,–
"Cc1c(C(=O)NCC(=O)NC2CC2)ccc(C2=NOC(c3cc(Cl)cc(Cl)c3)(C(F)(F)F)C2)c1F (centres unmarked) [Example 043, N-(2-(cyclopropylamino)-2-oxoethyl)-4-(5-(3,5-dichlorophenyl)-5-(trifluoromethyl)-4,5-dihydroisoxazol-3-yl)-3-fluoro-2-methylbenzamide]",< 50,50 to 90,–,–
"Cc1cc(C2=NOC(c3cc(Cl)cc(Cl)c3)(C(F)(F)F)C2)ccc1C(=O)N(C)CC(=O)NC1(C(F)(F)F)CC1 (centres unmarked) [Example 034, 4-(5-(3,5-dichlorophenyl)-5-(trifluoromethyl)-4,5-dihydroisoxazol-3-yl)-N,2-dimethyl-N-(2-oxo-2-((1-(trifluoromethyl)cyclopropyl)amino)ethyl)benzamide]",< 50,> 90,–,–
"Cc1cc(C2=NOC(c3cc(Cl)c(Cl)c(Cl)c3)(C(F)(F)F)C2)ccc1C(=O)NCC(=O)N1CC(F)(CF)C1 (centres unmarked) [Example 003, N-(2-(3-fluoro-3-(fluoromethyl)azetidin-1-yl)-2-oxoethyl)-2-methyl-4-(5-(3,4,5-trichlorophenyl) -5-(trifluoromethyl)-4,5-dihydroisoxazol-3-yl)benzamide]",< 50,> 90,–,–
"Cc1cc(C2=NOC(c3cc(F)cc(Cl)c3)(C(F)(F)F)C2)ccc1C(=O)NCC(=O)NC1(C(F)(F)F)CC1 (centres unmarked) [Example 027, 4-(5-(3-chloro-5-fluorophenyl)-5-(trifluoromethyl)-4,5-dihydroisoxazol-3-yl)-2-methyl-N-(2-oxo-2-((1-(trifluoromethyl)cyclopropyl)amino)ethyl)benzamide]",50 to 90,> 90,–,–
Cc1cc(C2=NOC(c3cc(Cl)cc(Cl)c3)(C(F)(F)F)C2)ccc1C(=O)NCC1(NCC(F)(F)F)CC1 (centres unmarked) [Example 017],–,–,"+ (a mite mortality rate less than 50% is denoted as ""+"")","++ (a mite mortality rate less than 90% and greater than or equal to 50% is denoted as ""++"")"
"Cc1cc(C2=NOC(c3cc(Cl)cc(Cl)c3)(C(F)(F)F)C2)ccc1C(=O)NCC(=O)N1CC(C(F)(F)F)C1 (centres unmarked) [Example 023, 4-(5-(3,5-dichlorophenyl)-5-(trifluoromethyl)-4,5-dihydroisoxazol-3-yl)-2-methyl-N-(2-oxo-2-(3-(trifluoromethyl)azetidin-1-yl)ethyl)benzamide]",< 50,50 to 90,–,–
"Cc1cc(C2=NOC(c3cc(Cl)cc(Cl)c3)(C(F)(F)F)C2)ccc1C(=O)NCC(=O)N1CC(F)(CF)C1 (centres unmarked) [Example 026, 4-(5-(3,5-dichlorophenyl)-5-(trifluoromethyl)-4,5-dihydroisoxazol-3-yl)-N-(2-(3-fluoro-3-(fluoromethyl)azetidin-1-yl)-2-oxoethyl)-2-methylbenzamide]",50 to 90,> 90,–,–
"Cc1cc(C2=NOC(c3cc(Cl)cc(Cl)c3)(C(F)(F)F)C2)ccc1C(=O)NCC(=O)NC1(C#N)CC1 (centres unmarked) [Example 024, N-(2-((1-cyanocyclopropyl)amino)-2-oxoethyl)-4-(5-(3,5-dichlorophenyl)-5-(trifluoromethyl)-4,5-dihydroisoxazol-3-yl)-2-methylbenzamide]",< 50,> 90,–,–
"COc1cc(Cl)cc(C2(C(F)(F)F)CC(c3ccc(C(=O)NCC(=O)NC4(C(F)(F)F)CC4)c(C)c3)=NO2)c1 (centres unmarked) [Example 033, 4-(5-(3-chloro-5-methoxyphenyl)-5-(trifluoromethyl)-4,5-dihydroisoxazol-3-yl)-2-methyl-N-(2-oxo-2-((1-(trifluoromethyl)cyclopropyl)amino)ethyl)benzamide]",< 50,> 90,–,–
"Cc1cc(C2=NOC(c3cc(Cl)cc(Cl)c3)(C(F)(F)F)C2)ccc1C(=O)N[C@@H](C)C(=O)NC1(C(F)(F)F)CC1 (stereo partly drawn) [Example 036, 4-(5-(3,5-dichlorophenyl)-5-(trifluoromethyl)-4,5-dihydroisoxazol-3-yl)-2-methyl-N-((S)-1-oxo-1-((1-(trifluoromethyl)cyclopropyl)amino)propan-2-yl)benzamide]",< 50,< 50,–,–
"Cc1cc(C2=NOC(c3cc(Cl)c(F)c(Cl)c3)(C(F)(F)F)C2)ccc1C(=O)NCC(=O)NC1(C(F)(F)F)CC1 (centres unmarked) [Example 001, 4-(5-(3,5-dichloro-4-fluorophenyl)-5-(trifluoromethyl)-4,5-dihydroisoxazol-3-yl)-2-methyl-N-(2-oxo-2-((1-(trifluoromethyl)cyclopropyl)amino)ethyl)benzamide]",< 50,> 90,–,–
"Cc1cc(C2=NOC(c3cc(Cl)cc(Cl)c3)(C(F)(F)F)C2)ccc1C(=O)NCC(=O)N1CCCC1C(F)(F)F (centres unmarked) [Example 016, 4-(5-(3,5-dichlorophenyl)-5-(trifluoromethyl)-4,5-dihydroisoxazol-3-yl)-2-methyl-N-(2-oxo-2-(2-(trifluoromethyl)pyrrolidin-1-yl)ethyl)benzamide]",< 50,< 50,–,–
